Measured values reported in ChEMBL document CHEMBL2331227, “Khayseneganins A-H, limonoids from Khaya senegalensis” (2013).
Values after ≈ are worked out from the molar mass of the structure shown.

Legend:
Type in all cases: functional
Staphylococcus aureus [1] = test: Antimicrobial activity against methicillin-resistant Staphylococcus aureus isolate 92 by two-fold dilution method
Staphylococcus aureus [2] = test: Antimicrobial activity against methicillin-resistant Staphylococcus aureus isolate 98 by two-fold dilution method
Staphylococcus aureus [3] = test: Antimicrobial activity against Staphylococcus aureus ATCC 25923 by two-fold dilution method
Pseudomonas aeruginosa = test: Antimicrobial activity against Pseudomonas aeruginosa ATCC 27853 by two-fold dilution method

Row | SMILES | MIC (Staphylococcus aureus [1]) [µg/mL] | MIC (Staphylococcus aureus [2]) [µg/mL] | MIC (Staphylococcus aureus [3]) [µg/mL] | MIC (Pseudomonas aeruginosa) [µg/mL]
1 | COC(=O)[C@@H](OC(C)=O)[C@H]1C(C)(C)C(=O)[C@@H]2C=C3[C@@H]4CC(=O)O[C@@H](c5ccoc5)[C@]4(C)CC[C@@H]3[C@@]1(C)C2=O [khayalenoid E] | 25 (≈ 47.5 µM) | 25 (≈ 47.5 µM) | 25 (≈ 47.5 µM) | 25 (≈ 47.5 µM)
2 | CC(=O)O[C@H]1C[C@@H](O)C(C)(C)[C@@H]2C[C@@H](OC(C)=O)[C@]3(C)[C@H](CC[C@@]4(C)[C@@H](c5ccoc5)OC(=O)[C@H]5O[C@@]534)[C@@]12C [3-DEACETYLKHIVORIN] | 12.5 (≈ 23 µM) | 12.5 (≈ 23 µM) | 25 (≈ 45.9 µM) | 12.5 (≈ 23 µM)
3 | COC(=O)[C@H](O)[C@@H]1[C@@]2(C)[C@H]3CC[C@]4(C)C(=CC(=O)O[C@H]4c4ccoc4)[C@]3(O)[C@H]3[C@@H](O)C(=O)[C@@]1(C)C[C@]32OC(C)=O (relative stereo) | > 50 | > 50 | > 50 | > 50
4 | COC(=O)C[C@H]1[C@@]2(C)C[C@]3(O)O[C@@]4(CC(=O)[C@H]2O)[C@H]2CC(=O)O[C@@H](c5ccoc5)[C@]2(C)CC[C@@H]4[C@]13C | > 50 | > 50 | > 50 | > 50
5 | CN[C@H](CC(C)C)C(=O)N[C@H]1C(=O)N[C@@H](CC(N)=O)C(=O)N[C@H]2C(=O)N[C@H]3C(=O)N[C@H](C(=O)N[C@H](C(=O)O)c4cc(O)cc(O)c4-c4cc3ccc4O)[C@H](O)c3ccc(c(Cl)c3)Oc3cc2cc(c3O[C@@H]2O[C@H](CO)[C@@H](O)[C@H](O)[C@H]2O[C@H]2C[C@](C)(N)[C@H](O)[C@H](C)O2)Oc2ccc(cc2Cl)[C@H]1O.Cl [VANCOMYCIN HYDROCHLORIDE] | 0.78 | 0.78 | 0.78 | 25
6 | CC1(C)C(=O)[C@@H]2C[C@@]34O[C@]2(O)[C@]2(COC(=O)C[C@@H]12)[C@H]3CC[C@]1(C)[C@H]4CC(=O)O[C@H]1c1ccoc1 [SENEGANOLIDE] | > 50 | > 50 | > 50 | > 50
7 | CC(=O)O[C@@H]1C[C@H](O)[C@]2(C)[C@H]3CC[C@@]4(C)[C@@H](c5ccoc5)OC(=O)[C@H]5O[C@]54[C@]3(C)[C@H](OC(C)=O)C[C@H]2C1(C)C | 25 (≈ 45.9 µM) | 12.5 (≈ 23 µM) | 25 (≈ 45.9 µM) | 25 (≈ 45.9 µM)
8 | CC(=O)O[C@H]1C[C@@H](OC(C)=O)C(C)(C)[C@@H]2CC(=O)[C@]3(C)[C@H](CC[C@@]4(C)[C@@H](c5ccoc5)OC(=O)[C@H]5O[C@]543)[C@@]12C | 50 (≈ 92.1 µM) | 25 (≈ 46.1 µM) | 50 (≈ 92.1 µM) | 25 (≈ 46.1 µM)
9 | COC(=O)[C@H](O)[C@H]1[C@]2(C)C[C@]3(OC(C)=O)[C@@H]4[C@@](OC)(O[C@]56CC(=O)O[C@@H](c7ccoc7)[C@]5(C)CC[C@H]([C@]13C)[C@@]46O)[C@H]2O (relative stereo) | > 50 | > 50 |  | 
10 | COC(=O)C[C@H]1C(C)(C)[C@H](OC(C)=O)[C@@H]2C=C3[C@@H]4CC(=O)O[C@@H](c5ccoc5)[C@]4(C)CC[C@@H]3[C@@]1(C)C2=O | 12.5 (≈ 24.4 µM) | 12.5 (≈ 24.4 µM) | 25 (≈ 48.8 µM) | 12.5 (≈ 24.4 µM)
11 | COC(=O)C[C@H]1C(C)(C)[C@H](OC(C)=O)[C@]2(O)C=C3[C@H]([C@H](OC(C)=O)C[C@]4(C)[C@H]3CC(=O)O[C@H]4c3ccoc3)[C@@]1(C)C2=O | 25 (≈ 42.6 µM) | 25 (≈ 42.6 µM) | 25 (≈ 42.6 µM) | 25 (≈ 42.6 µM)
12 | COC(=O)[C@H](O)[C@H]1C(C)(C)C(=O)[C@@H]2C[C@]3(O)[C@@H]4CC(=O)O[C@@H](c5ccoc5)[C@]4(C)CC[C@@H]3[C@@]1(C)C2=O [KHAYANONE] | 25 (≈ 49.7 µM) | 25 (≈ 49.7 µM) | 25 (≈ 49.7 µM) | > 50
13 | COC(=O)[C@H](O)[C@H]1C(C)(C)[C@H](OC(C)=O)[C@@H]2CC3=C4CC(=O)O[C@@H](c5ccoc5)[C@]4(C)CC[C@@H]3[C@@]1(C)C2=O [SWIETENOLIDE-3-ACETATE] | 25 (≈ 47.3 µM) | 25 (≈ 47.3 µM) | 25 (≈ 47.3 µM) | 25 (≈ 47.3 µM)
14 | C=C1[C@@H]2CC[C@@]3(C)[C@H](c4ccoc4)OC(=O)C[C@]13O[C@H]1CC(=O)OC(C)(C)[C@H]([C@@H](O)C(=O)OC)[C@]12C (relative stereo) | 25 (≈ 49.7 µM) | 50 (≈ 99.5 µM) | 50 (≈ 99.5 µM) | 25 (≈ 49.7 µM)
15 | COC(=O)C[C@H]1C(C)(C)[C@H](O)[C@@H]2C=C3[C@H]([C@H](OC(C)=O)C[C@]4(C)[C@H]3CC(=O)O[C@H]4c3ccoc3)[C@@]1(C)C2=O [Swietmanin C] | > 50 | > 50 | > 50 | > 50
16 | CC(=O)O[C@H]1C[C@@H](O)C(C)(C)[C@@H]2C[C@@H](O)[C@]3(C)[C@H](CC[C@@]4(C)[C@@H](c5ccoc5)OC(=O)[C@H]5O[C@@]534)[C@@]12C | > 50 | > 50 | > 50 | > 50
17 | C=C1[C@H]2CC[C@]3(C)[C@H](c4ccoc4)OC(=O)C[C@@]13O[C@H]1CC(=O)OC(C)(C)[C@@H](CC(=O)OC)[C@@]12C [METHYL IVORENSATE] | > 50 | > 50 | > 50 | > 50
18 | COC(=O)C[C@H]1C(C)(C)[C@H](OC(C)=O)[C@@H]2C=C3[C@H]([C@H](OC(C)=O)C[C@]4(C)[C@H]3CC(=O)O[C@H]4c3ccoc3)[C@@]1(C)C2=O [SWIETMANIN B] | 50 (≈ 87.6 µM) | 12.5 (≈ 21.9 µM) | 25 (≈ 43.8 µM) | 12.5 (≈ 21.9 µM)
